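A five-concentration, 48-hour dose response in 96-well plates underlies each endpoint, interpolated linearly between surrounding concentrations. At the TGI there is no net growth.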
Legend:
Experiment in all cases: growth of human tumour cells (NCI), 48 h
HCT-116 colon = system: HCT-116 colon
HCT-15 colon = system: HCT-15 colon
KM12 colon = system: KM12 colon
NCI-H522 lung = system: NCI-H522 lung
MOLT-4 leukemia = system: MOLT-4 leukemia
SR leukemia = system: SR leukemia
RXF 393 renal = system: RXF 393 renal
MDA-MB-231 breast = system: MDA-MB-231 breast
SN12C renal = system: SN12C renal
CAKI-1 renal = system: CAKI-1 renal
RPMI-8226 leukemia = system: RPMI-8226 leukemia
HS 578T breast = system: HS 578T breast
CCRF-CEM leukemia = system: CCRF-CEM leukemia
LOX IMVI melanoma = system: LOX IMVI melanoma
UO-31 renal = system: UO-31 renal
OVCAR-5 ovarian = system: OVCAR-5 ovarian
MDA-MB-435 = system: MDA-MB-435
T-47D breast = system: T-47D breast
EKVX NSCLC = system: EKVX NSCLC
MALME-3M melanoma = system: MALME-3M melanoma
SF-295 CNS = system: SF-295 CNS
SF-268 CNS = system: SF-268 CNS
HCC-2998 colon = system: HCC-2998 colon
COLO 205 colon = system: COLO 205 colon
M14 melanoma = system: M14 melanoma
SNB-19 CNS = system: SNB-19 CNS
TK-10 renal = system: TK-10 renal
UACC-62 melanoma = system: UACC-62 melanoma
NCI-H460 lung = system: NCI-H460 lung
BT-549 breast = system: BT-549 breast
SF-539 CNS = system: SF-539 CNS
OVCAR-8 ovarian = system: OVCAR-8 ovarian
SK-MEL-28 melanoma = system: SK-MEL-28 melanoma
SNB-75 CNS = system: SNB-75 CNS
UACC-257 melanoma = system: UACC-257 melanoma
MCF7 breast = system: MCF7 breast
MDA-N = system: MDA-N
ACHN renal = system: ACHN renal
U251 CNS = system: U251 CNS
A498 renal = system: A498 renal
DU-145 prostate = system: DU-145 prostate
OVCAR-4 ovarian = system: OVCAR-4 ovarian
IGROV1 ovarian = system: IGROV1 ovarian
786-0 renal = system: 786-0 renal
SK-MEL-5 melanoma = system: SK-MEL-5 melanoma
HOP-92 NSCLC = system: HOP-92 NSCLC
NCI-H226 lung = system: NCI-H226 lung
SW-620 colon = system: SW-620 colon
K-562 leukemia = system: K-562 leukemia
OVCAR-3 ovarian = system: OVCAR-3 ovarian
A549 NSCLC = system: A549 NSCLC
NCI/ADR-RES ovarian = system: NCI/ADR-RES ovarian
HL-60(TB) leukemia = system: HL-60(TB) leukemia
SK-MEL-2 melanoma = system: SK-MEL-2 melanoma
PC-3 prostate = system: PC-3 prostate
SK-OV-3 ovarian = system: SK-OV-3 ovarian
HT29 colon = system: HT29 colon
NCI-H23 lung = system: NCI-H23 lung
HOP-62 NSCLC = system: HOP-62 NSCLC

CC(C)=C[C@H]1C[C@H](C)[C@H]2CC[C@H](C)c3c2c1c(C)c1ncoc31
TGI (HCT-116 colon): 33.6 µM | TGI (HCT-15 colon): 34.8 µM | TGI (KM12 colon): 34.5 µM | TGI (NCI-H522 lung): 31.5 µM | TGI (MOLT-4 leukemia): 32.3 µM | TGI (SR leukemia): 40.9 µM | TGI (RXF 393 renal): 25.7 µM | TGI (MDA-MB-231 breast): 39.3 µM | TGI (SN12C renal): 35.6 µM | TGI (CAKI-1 renal): 35.5 µM | TGI (RPMI-8226 leukemia): 36.9 µM | TGI (HS 578T breast): 45 µM | TGI (CCRF-CEM leukemia): 39.6 µM | TGI (LOX IMVI melanoma): 37.7 µM | TGI (UO-31 renal): 31.5 µM | TGI (OVCAR-5 ovarian): 29.9 µM | TGI (MDA-MB-435): 38.9 µM | TGI (T-47D breast): 37.9 µM | TGI (EKVX NSCLC): 30 µM | TGI (MALME-3M melanoma): 29.5 µM | TGI (SF-295 CNS): 31.2 µM | TGI (SF-268 CNS): 46 µM | TGI (HCC-2998 colon): 35.8 µM | TGI (COLO 205 colon): 33.6 µM | TGI (M14 melanoma): 29.3 µM | TGI (SNB-19 CNS): 32.3 µM | TGI (TK-10 renal): 31.7 µM | TGI (UACC-62 melanoma): 32.9 µM | TGI (NCI-H460 lung): 35.6 µM | TGI (BT-549 breast): 36.3 µM | TGI (SF-539 CNS): 32.5 µM | TGI (OVCAR-8 ovarian): 36.8 µM | TGI (SK-MEL-28 melanoma): 37 µM | TGI (SNB-75 CNS): 36.2 µM | TGI (UACC-257 melanoma): 33.5 µM | TGI (MCF7 breast): 30.5 µM | TGI (MDA-N): 34.2 µM | TGI (ACHN renal): 32.7 µM | TGI (U251 CNS): 34 µM | TGI (A498 renal): 34.9 µM | TGI (DU-145 prostate): 33.9 µM | TGI (OVCAR-4 ovarian): 34.1 µM | TGI (IGROV1 ovarian): 27 µM | TGI (786-0 renal): 36.1 µM | TGI (SK-MEL-5 melanoma): 28.6 µM | TGI (HOP-92 NSCLC): 31.4 µM | TGI (NCI-H226 lung): 33.2 µM | TGI (SW-620 colon): 36 µM | TGI (K-562 leukemia): > 100 µM | TGI (OVCAR-3 ovarian): 28.7 µM | TGI (A549 NSCLC): 32.3 µM | TGI (NCI/ADR-RES ovarian): 32.4 µM | TGI (HL-60(TB) leukemia): 44.8 µM | TGI (SK-MEL-2 melanoma): 31.1 µM | TGI (PC-3 prostate): 35.2 µM

N=c1oc2ccccc2cc1C(=O)NC12CC3CC(CC(C3)C1)C2
TGI (HCT-116 colon): 71.1 µM | TGI (HCT-15 colon): 67.5 µM | TGI (KM12 colon): 52.4 µM | TGI (NCI-H522 lung): 14.8 µM | TGI (MOLT-4 leukemia): 10.2 µM | TGI (SR leukemia): 11.4 µM | TGI (RXF 393 renal): 24.2 µM | TGI (MDA-MB-231 breast): 47.7 µM | TGI (SN12C renal): > 100 µM | TGI (SK-OV-3 ovarian): 53.5 µM | TGI (RPMI-8226 leukemia): 31.1 µM | TGI (HS 578T breast): > 100 µM | TGI (CCRF-CEM leukemia): 17.2 µM | TGI (LOX IMVI melanoma): > 59.8 µM | TGI (UO-31 renal): 0.471 µM | TGI (OVCAR-5 ovarian): > 100 µM | TGI (HT29 colon): > 100 µM | TGI (MDA-MB-435): > 83.6 µM | TGI (T-47D breast): 22.7 µM | TGI (EKVX NSCLC): > 82.8 µM | TGI (MALME-3M melanoma): 98.2 µM | TGI (SF-295 CNS): 67.4 µM | TGI (SF-268 CNS): > 100 µM | TGI (HCC-2998 colon): 28.7 µM | TGI (COLO 205 colon): 32.7 µM | TGI (M14 melanoma): > 100 µM | TGI (SNB-19 CNS): 80.5 µM | TGI (TK-10 renal): 43.5 µM | TGI (UACC-62 melanoma): 62.6 µM | TGI (NCI-H460 lung): 31.4 µM | TGI (BT-549 breast): 50.6 µM | TGI (SF-539 CNS): 42 µM | TGI (OVCAR-8 ovarian): > 100 µM | TGI (SK-MEL-28 melanoma): > 100 µM | TGI (SNB-75 CNS): 71.3 µM | TGI (UACC-257 melanoma): 70.9 µM | TGI (MCF7 breast): 18.3 µM | TGI (MDA-N): > 100 µM | TGI (ACHN renal): 31.4 µM | TGI (U251 CNS): 43.8 µM | TGI (A498 renal): > 82.1 µM | TGI (DU-145 prostate): > 84.3 µM | TGI (OVCAR-4 ovarian): > 86.8 µM | TGI (IGROV1 ovarian): > 65.6 µM | TGI (786-0 renal): 9.92 µM | TGI (SK-MEL-5 melanoma): 69.9 µM | TGI (HOP-92 NSCLC): > 100 µM | TGI (NCI-H23 lung): > 91.6 µM | TGI (NCI-H226 lung): > 90.3 µM | TGI (SW-620 colon): > 100 µM | TGI (K-562 leukemia): 72.1 µM | TGI (OVCAR-3 ovarian): 37.5 µM | TGI (A549 NSCLC): 73.1 µM | TGI (NCI/ADR-RES ovarian): > 100 µM | TGI (HOP-62 NSCLC): > 83.7 µM | TGI (HL-60(TB) leukemia): 30.7 µM | TGI (SK-MEL-2 melanoma): 31.3 µM | TGI (PC-3 prostate): > 68.9 µM

Reference: PubChem BioAssay (NCI)
